Measured values published in article PMC7550323 (Clinical Pharmacokinetics, 2020).

Columns and labels:
[1] = human, in vivo; cited from earlier work
CYP3A4 [2] = target: T1, CYP3A4 (Homo sapiens, UniProt P08684); experiment: Effect of gilteritinib on the pharmacokinetics of midazolam; settings: for AUC24, GLSM ratio (midazolam + gilteritinib/midazolam alone) / Cmax, GLSM ratio (midazolam + gilteritinib/midazolam alone): 100 indicates no change; for increase in AUC24 on coadministration of gilteritinib with midazolam / increase in Cmax on coadministration of gilteritinib with midazolam: relative to midazolam alone
T1 sequence (P08684 whole entry): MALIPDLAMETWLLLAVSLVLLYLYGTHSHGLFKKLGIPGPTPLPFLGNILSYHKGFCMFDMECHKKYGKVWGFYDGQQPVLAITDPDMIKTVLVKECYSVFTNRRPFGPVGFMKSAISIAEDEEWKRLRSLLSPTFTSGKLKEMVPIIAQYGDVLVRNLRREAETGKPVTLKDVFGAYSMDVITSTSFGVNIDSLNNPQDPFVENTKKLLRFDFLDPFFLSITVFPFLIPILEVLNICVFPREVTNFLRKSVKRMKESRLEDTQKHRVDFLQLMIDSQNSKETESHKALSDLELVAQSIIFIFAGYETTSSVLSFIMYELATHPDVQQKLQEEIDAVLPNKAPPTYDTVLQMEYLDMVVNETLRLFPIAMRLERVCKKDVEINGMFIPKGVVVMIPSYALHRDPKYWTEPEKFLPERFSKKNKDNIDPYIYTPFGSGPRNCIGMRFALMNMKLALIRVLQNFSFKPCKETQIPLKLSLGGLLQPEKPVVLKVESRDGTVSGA

CYP3A4 [3] = target: T1, CYP3A4; experiment: clinical; settings: plasma, po, 2 mg

Structure (SMILES)	half-life [1] [h]	increase in exposure when coadministered with itraconazole [1] [fold]	increase in exposure when coadministered with ketoconazole [1] [fold]	increase in exposure with a high-fat meal [1] [fold]	AUC24, GLSM ratio (midazolam + gilteritinib/midazolam alone) (CYP3A4 [2]; N = 8) [%]	Cmax, GLSM ratio (midazolam + gilteritinib/midazolam alone) (CYP3A4 [2]; N = 9) [%]	increase in AUC24 on coadministration of gilteritinib with midazolam (CYP3A4 [2]) [%]	increase in Cmax on coadministration of gilteritinib with midazolam (CYP3A4 [2])	AUC (CYP3A4 [3]) [ng·h/mL]	Cmax (CYP3A4 [3]) [ng/mL]	AUC24, MDZ + gilteritinib (GLSM) (CYP3A4 [2]; midazolam 2 mg oral on Cycle 1 Day 15 with gilteritinib 300 mg QD, N = 8) [ng·h/mL]	Cmax, MDZ + gilteritinib (GLSM) (CYP3A4 [2]; midazolam 2 mg oral on Cycle 1 Day 15 with gilteritinib 300 mg QD, N = 9) [ng/mL]	AUC24, MDZ alone (GLSM) (CYP3A4 [2]; midazolam 2 mg oral on Day-1, N = 8) [ng·h/mL]	Cmax, MDZ alone (GLSM) (CYP3A4 [2]; midazolam 2 mg oral on Day-1, N = 9) [ng/mL]
CO[C@@H]1[C@H](N(C)C(=O)c2ccccc2)C[C@H]2O[C@]1(C)n1c3ccccc3c3c4c(c5c6ccccc6n2c5c31)C(=O)NC4 [midostaurin]	21	2.1	10.4	1.6										
Cc1ncc2n1-c1ccc(Cl)cc1C(c1ccccc1F)=NC2 [midazolam, reference compound]					109.5	111.6	10	10%	54.3	14.3				
OCc1ncc2n1-c1ccc(Cl)cc1C(c1ccccc1F)=NC2 [1-hydroxymidazolam]					149.9	123.5	~50	approximately 23%			17.0	4.3	11.3	3.5
